Experimental findings from US12421242B2, “Substituted tetrahydropyrrolo-pyridinone compounds and their use in treating medical conditions” (Karuna Therapeutics, Inc., priority 2022, dated 2025) are described below.

One experiment deals with T1, hM4 receptors (Homo sapiens, UniProt P08173).
T1 construct: expressed in transfected cells; host or cells: CHO cells
T1 sequence (P08173 1-479): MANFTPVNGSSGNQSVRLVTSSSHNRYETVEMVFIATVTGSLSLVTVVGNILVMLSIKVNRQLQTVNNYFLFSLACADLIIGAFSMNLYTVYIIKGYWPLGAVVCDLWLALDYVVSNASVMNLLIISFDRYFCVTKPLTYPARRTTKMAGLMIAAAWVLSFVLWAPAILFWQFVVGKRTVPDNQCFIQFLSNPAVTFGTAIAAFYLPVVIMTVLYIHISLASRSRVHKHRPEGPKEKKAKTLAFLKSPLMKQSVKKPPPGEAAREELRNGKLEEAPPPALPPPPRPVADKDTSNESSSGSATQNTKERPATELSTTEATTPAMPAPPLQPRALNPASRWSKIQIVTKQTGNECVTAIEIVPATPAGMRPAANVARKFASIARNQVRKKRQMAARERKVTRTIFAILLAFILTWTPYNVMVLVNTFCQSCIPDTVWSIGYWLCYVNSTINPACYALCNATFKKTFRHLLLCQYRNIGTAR
Put plainly: Human M4 PAM pERK assay. In kind it is cell-based. The following applies: PAM mode. The gist of the method: (§1)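 CHO cells expressing hM4 or rM4 were serum-starved 4 h, then given compound (ten-point curve, 10 μM top, duplicate) with an EC20 of acetylcholine (10 nM final) for 5 min at 37° C. Phospho-ERK in lysates was detected by TR-FRET.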

The next experiment deals with T2, human M4 receptor (Homo sapiens, UniProt P08173).
T2 construct: expressed in transfected cells
T2 sequence (P08173 1-479): T1 sequence (P08173 1-479)
Put plainly: M4 GTPγS PAM assay. The class given is biochemical. The following applies: CHO-K1 membranes expressing human M4, with EC20 acetylcholine (40 nM). The gist of the method:
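Membranes from CHO-K1 cells stably expressing human M4 preincubated 10-15 min with compound in HEPES/MgCl2/NaCl buffer with 0.1 µM GDP, then with EC20 acetylcholine (40 nM) for 10-15 min. [35S]GTPγS added for 1 h at room temperature; filter-bound radioactivity counted by scintillation.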

In another experiment the target is T3, rM4 receptors (Rattus norvegicus, UniProt P08485).
T3 construct: expressed in transfected cells; host or cells: CHO cells
T3 sequence (P08485 1-478): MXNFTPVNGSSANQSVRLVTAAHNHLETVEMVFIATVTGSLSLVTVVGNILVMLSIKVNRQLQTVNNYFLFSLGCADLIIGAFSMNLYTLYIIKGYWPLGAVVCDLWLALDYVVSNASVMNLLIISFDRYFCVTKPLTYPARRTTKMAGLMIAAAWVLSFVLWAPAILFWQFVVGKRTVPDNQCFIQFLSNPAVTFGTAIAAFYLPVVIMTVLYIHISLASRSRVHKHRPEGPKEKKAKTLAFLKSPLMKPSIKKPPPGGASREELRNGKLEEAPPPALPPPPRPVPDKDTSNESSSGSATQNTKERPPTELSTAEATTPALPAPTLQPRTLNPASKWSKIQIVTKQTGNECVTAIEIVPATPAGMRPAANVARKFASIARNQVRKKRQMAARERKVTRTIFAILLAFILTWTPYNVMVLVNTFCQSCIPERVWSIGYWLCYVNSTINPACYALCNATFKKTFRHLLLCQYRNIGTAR
The experiment in a line: Rat M4 PAM pERK assay. In kind it is cell-based. The following applies: PAM mode. The gist of the method: as §1

As a reminder, the EC50 is the concentration needed to bring the measured effect to its halfway point. Read a low EC50 as a more potent agent. Regarding `Cc1c(OC(F)F)c2c(n(C)c1=O)CN(C(=O)c1cnn(C(F)(F)F)c1)C2` [Compound I-89, 4-(Difluoromethoxy)-1,3-dimethyl-6-(1-(trifluoromethyl)-1H-pyrazole-4-carbonyl)-1,5,6,7-tetrahydro-2H-pyrrolo[3,4-b]pyridin-2-one], the concentration giving a half-maximal response (EC50) was 0.1 to 0.5 µM on hM4 receptors, 0.5 to 2 µM at human M4 receptor and > 2 µM at rM4 receptors.

`Cc1c2c(n(C)c(=O)c1Cl)CN(C(=O)c1cc3n(n1)CCCC3)C2` [Compound I-32]: the figures for the EC50 at hM4 receptors, on human M4 receptor and at rM4 receptors were 0.1 to 0.5 µM, 0.5 to 2 µM and > 2 µM, respectively.

In the case of `Cc1c2c(n(CC(F)(F)F)c(=O)c1Cl)CN(C(=O)c1cnc(CC3CC3)s1)C2` [Compound I-71], the EC50 was 0.5 to 2 µM at hM4 receptors, > 2 µM at human M4 receptor and > 2 µM at rM4 receptors.
